Converted amounts (≈) assume the structure as drawn.
Tests used:
Assay type in all cases: cell-based
S. pneumoniae (SV-1) = experiment: In vitro antibacterial activity (MIC), S. pneumoniae; conditions: Streptococcus pneumoniae; strain SV-1; lowest concentration preventing macroscopically visible growth; read-out: Minimum Inhibitory concentrations S. pneumoniae (SV-1)
From the text: (§1) The in vitro antibacterial activity of the compounds of the present invention may be assessed by following procedures recommended in (1) National Committee for Clinical Laboratory Standards (January 2003), Methods for dilution antimicrobial tests for bacteria that grow aerobically, Approved Standard (6th ed), M7-A6, NCCLS, Wayne, Pa.; (2) National Committee for Clinical Laboratory Standards (March 2001), Methods for antimicrobial susceptibility testing of anaerobic bacteria, Approved Standard (5th ed), M11-A4, NCCLS, Wayne, Pa.; (3) National Committee for Clinical Laboratory Standards (January 2003), MIC testing supplemental tables, M100-S13 (for use with M7-A6), NCCLS, Wayne, Pa.; and (4) Murray P R, Baron E J, Jorgensen J H, et al. Manual of Clinical Microbiology (8th ed) Washington, D.C.: American Society for Microbiology Press, 2003. The antibacterial activity can be presented in the form of MIC value. The MIC value is the lowest concentration of drug which prevented macroscopically visible growth under the conditions of the test.

S. pyogenes (C203) = experiment: In vitro antibacterial activity (MIC), S. pyogenes; conditions: Streptococcus pyogenes; strain C203; lowest concentration preventing macroscopically visible growth; read-out: Minimum Inhibitory concentrations S. pyogenes (C203)
From the text: as §1

S. aureus (UC-76) = experiment: In vitro antibacterial activity (MIC), S. aureus; conditions: Staphylococcus aureus, UC76; strain UC-76; lowest concentration preventing macroscopically visible growth; read-out: Minimum Inhibitory concentrations S. aureus (UC-76)
From the text: as §1

Row | SMILES | MIC (S. pneumoniae (SV-1)) | MIC (S. pyogenes (C203)) | MIC (S. aureus (UC-76))
1 | CNC(=O)[C@H]1CN(c2cc(F)c(N3CCC/S(=N\C(=O)C(F)(F)F)CC3)c(F)c2)C(=O)O1 (stereo in doubt) [Example 7, 3-{3,5-difluoro-4-[1-(2,2,2-trifluoro-acetylimino)-1λ^4-[1,4]thiazepan-4-yl]-phenyl}-2-oxo-oxazolidine-5-carboxylic acid methylamide] | 8 µg/mL (≈ 16.6 µM) | 8 µg/mL (≈ 16.6 µM) | 8 µg/mL (≈ 16.6 µM)
2 | CNC(=O)[C@H]1CN(c2cc(F)c(N3CCCSCC3)c(F)c2)C(=O)O1 [Example 2, 3-[3,5-difluoro-4-(1,4-thiazepan-4-yl)-phenyl]-2-oxo-oxazolidine-5-carboxylic acid methylamide] | 4 µg/mL (≈ 10.8 µM) | 2 µg/mL (≈ 5.38 µM) | 2 µg/mL (≈ 5.38 µM)
3 | NC(=O)[C@H]1CN(c2cc(F)c(N3CCCS(=O)(=O)CC3)c(F)c2)C(=O)O1 [Example 3, 3-[4-(1,1-dioxo-1λ^6-[1,4]thiazepan-4-yl)-3,5-difluoro-phenyl]-2-oxo-oxazolidine-5-carboxylic acid amide] | 4 µg/mL (≈ 10.3 µM) | 2 µg/mL (≈ 5.14 µM) | 2 µg/mL (≈ 5.14 µM)
4 | CNC(=O)[C@H]1CN(c2cc(F)c(N3CCCS(=O)(=O)CC3)c(F)c2)C(=O)O1 [Example 4, 3-[4-(1,1-dioxo-1λ^6-[1,4]thiazepan-4-yl)-3,5-difluoro-phenyl]-2-oxo-oxazolidine-5-carboxylic acid methylamide] | 4 µg/mL (≈ 9.92 µM) | 2 µg/mL (≈ 4.96 µM) | 2 µg/mL (≈ 4.96 µM)
5 | CNC(=O)[C@H]1CN(c2ccc(N3CCCSCC3)c(F)c2)C(=O)O1 [Example 9, 5(R)-3-[3-Fluoro-4-(1,4-thiazepan-4-yl)-phenyl]-2-oxo-oxazolidine-5-carboxylic acid methylamide] | 8 µg/mL (≈ 22.6 µM) | 4 µg/mL (≈ 11.3 µM) | 8 µg/mL (≈ 22.6 µM)
6 | CNC(=O)[C@H]1CN(c2ccc(N3CCC[S+]([O-])CC3)c(F)c2)C(=O)O1 (stereo partly drawn) [Example 11, 5(R)-3-[-fluoro-4-(1-oxo-1λ^4-[1,4]thiazepan-4yl)-phenyl]-2-oxo-oxazolidine-5-carboxylic acid methyl amide] | 4 µg/mL (≈ 10.8 µM) | 1 µg/mL (≈ 2.71 µM) | 2 µg/mL (≈ 5.41 µM)
7 | CNC(=O)[C@H]1CN(c2ccc(N3CCCS(=O)(=O)CC3)c(F)c2)C(=O)O1 [Example 13, 5(R)-3-[4-(1,1-dioxo-1λ^6-[1,4]thiazepan-4-yl)-3-fluoro-phenyl]-2-oxo-oxazolidine-5-carboxylic acid methyl amide] | 2 µg/mL (≈ 5.19 µM) | 1 µg/mL (≈ 2.59 µM) | 12 µg/mL (≈ 31.1 µM)

Other lines, results leading:

Row | MIC (S. pneumoniae (SV-1)) | MIC (S. pyogenes (C203)) | MIC (S. aureus (UC-76)) | SMILES
8 | 4 µg/mL (≈ 11.2 µM) | 2 µg/mL (≈ 5.6 µM) | 2 µg/mL (≈ 5.6 µM) | NC(=O)[C@H]1CN(c2cc(F)c(N3CCCSCC3)c(F)c2)C(=O)O1 [Example 1, 3-[3,5-difluoro-4-(1,4-thiazepan-4-yl)-phenyl]-2-oxo-oxazolidine-5-carboxylic acid amide]
9 | 8 µg/mL (≈ 19.1 µM) | 4 µg/mL (≈ 9.54 µM) | 4 µg/mL (≈ 9.54 µM) | CONC(=O)[C@H]1CN(c2cc(F)c(N3CCCS(=O)(=O)CC3)c(F)c2)C(=O)O1 [Example 5, 3-[4-(1,1-dioxo-1λ^6-[1,4]thiazepan-4-yl)-3,5-difluoro-phenyl]-2-oxo-oxazolidine-5-carboxylic acid methoxy-amide]
10 | 8 µg/mL (≈ 17.1 µM) | 8 µg/mL (≈ 17.1 µM) | 8 µg/mL (≈ 17.1 µM) | NC(=O)[C@H]1CN(c2cc(F)c(N3CCC/S(=N\C(=O)C(F)(F)F)CC3)c(F)c2)C(=O)O1 (stereo partly drawn) [Example 6, 3-{3,5-difluoro-4-[1-(2,2,2-trifluoro-acetylimino)-114-[1,4]thiazepan-4-yl]-phenyl}-2-oxo-oxazolidine-5-carboxylic acid amide]
11 | 4 µg/mL (≈ 11.3 µM) | 1 µg/mL (≈ 2.81 µM) | 2 µg/mL (≈ 5.63 µM) | NC(=O)[C@H]1CN(c2ccc(N3CCC[S+]([O-])CC3)c(F)c2)C(=O)O1 (stereo partly drawn) [Example 12, 5(R)-3-[3-fluoro4-(1-oxo-1-[1,4]thiazepan-4-yl)-phenyl]-2-oxo-oxazolidine-5-carboxylic acid amide]

— patent publication US20090137553A1, “Thiazepine Oxazolidinones as Antibacterial Agents” (Pharmacia and Upjohn Company LLC, priority 2004, published 2009)
